Patent US20030082227A1, “Transdermal device comprising a reservoir and a matrix containing the same active principle” (priority 1999, published 2003)

Test: Solubility of testosterone in tetrahydrofuran
Assay type: physicochemical

## C[C@]12CC[C@H]3[C@@H](CCC4=CC(=O)CC[C@@]43C)[C@@H]1CC[C@@H]2O [testosterone, 17β-hydroxyandrost-4-en-3-one]
  solubility of testosterone in THF: ~27 % m/m
